US12109266B2, “Modulating gabarap to modulate immunogenic cell death” (Dana-Farber Cancer Institute, Inc., priority 2020, dated 2024)
“Also recorded” adds a separate entry of the source.

Legend:
MM cell lines = settings: different MM cell lines; cited from earlier work
HR-SMM = settings: cited from earlier work
5TGM1 tumors [1] = experiment: In vivo tumor growth analysis; parameters: species or system mouse
Procedure: (§1) 6-week old female immunodeficient NOD.CB17-Prkdcscid/NCrCrl (NOD/SCID) mice (Charles River) and immunocompetent C57BL/KaLwRijHsd (Envigo) mice were housed in an animal facility at the Dana-Farber Cancer Institute (DFCI). All experiments were performed after approval by the Animal Ethics Committee of the DFCI and performed using institutional guidelines.
To assess the effect of BTZ in the absence of an immune system, NOD/SCID mice were subcutaneously injected with 1×10^6 5TGM1 WT cells in a 1:1 ratio with Matrigel® (Corning); to assess BTZ in an immunocompetent host, C57BL/KaLwRijHsd mice were injected with 1×10^6 5TGM1 either WT or calrKO in the same ratio with Matrigel®. When tumor became measurable, mice (5/group) were randomized to receive either PBS or BTZ administered intra peritoneally (i.p.) 0.5 mg/kg twice/week for 2 weeks. Tumor sizes were measured and mice were sacrificed when tumors reached 2 cm in diameter or ulceration or major compromise in quality of life. A parallel experiment was performed to allow for tumor harvesting after two injections i.p. of BTZ for RNA-seq analysis, as detailed below.
as §1, with “(NOD/SCID)” for “(NOD/SCID) mice”, “in the” for “in an”, “at DFCI.” for “at the Dana-Farber Cancer Institute (DFCI).”
(§2) NOD/SCID and C57BL/KaLwRijHsd mice were subcutaneously (sc) injected with 1×10^6 5TGM1 either WT or Calr^KO cells in PBS. When tumor became measurable, mice were randomized to receive either PBS or BTZ administered intra peritoneally (i.p.) 0.5 mg/kg twice/week for 2 weeks. Tumor sizes were measured as previously described (46), and mice were sacrificed when tumors reached 2 cm in diameter or ulceration or major compromise in quality of life. A parallel experiment was performed to allow for tumor harvesting after two injections ip of BTZ for RNA-seq analysis, as detailed below. For BTZ and STING agonist combination studies, C57BL/KaLwRijHsd (n=5/group) and SCID/NOD (n=6/group) mice bearing 5TGM1 WT and C57BL/KaLwRijHsd mice (n=5/group) bearing 5TGM1 Sting^KO tumors were randomized to receive: PBS, BTZ (0.375 mg/kg twice a week for 2 weeks, i.p.), ADU-S100 (100 μg) administered in the peritumoral area (day 1 and 2), or a combination. Tumor sizes were measured as described above. A parallel experiment in C57BL/KaLwRijHsd mice was performed to allow for tumor harvesting after one administration of either BTZ or ADU-S100. Tumors were fixed in 10% formalin for 24 h, and then maintained in 70% ethanol prior to paraffin embedding and processing for IHC to detect CD3 (#nb600 Ab, Novus Bio).

5TGM1 tumors [2] = experiment: IHC CD3 staining of tumors; assay type: in vivo, mouse; settings: tumors retrieved after one administration of the drugs
Procedure: as §2

cGAS/STING pathway = experiment: Western blot of cGAS/STING pathway; assay type: cell-based, human; settings: AMO1; ADU-S100 10 uM with BTZ 5 nM
Procedure: Cell lysis was performed in RIPA buffer (Boston Bio Products) supplemented with Halt protease and phosphatase inhibitor cocktail (ThermoFisher Scientific). SDS-PAGE was performed on NuPage Bis-Tris gels (ThermoFisher Scientific) using MOPS or MES running buffer. Gels were dry transferred onto 0.45 μm nitrocellulose membranes using the iBlot® Dry Blotting System (ThermoFisher Scientific). The following Abs were purchased from Cell Signaling Technology: EIF2A (#5324), p-EIF2A (#3398), ATF4 (#11815), CHOP (2895), CALR (#12238), cGAS (#15102), TBK1 (#3504), pTBK1 (#5483), pIRF3 (#29047), STING (#13647). GAPDH (#2118) and B-ACTIN (#4970) were used as loading controls.

5TGM1 MM cells = experiment: Cell Counting Kit-8 (CCK-8) proliferation assay; assay type: cell-based, murine; settings: ADU-S100 0-5 uM, 72 hr
Procedure: Cell viability was evaluated by Cell Counting Kit-8 (CCK-8) assay (Dojindo Molecular Technologies).

[3] = system: type-I IFN response in AMO1 and NCI-H929 MM cells; experiment: Type-I IFN response in MM cells (RNA-seq, qRT-PCR, ELISA); assay type: cell-based, human; settings: H929; STING agonist 10 uM with BTZ 5 nM
Procedure: Total RNA from multiple myeloma cells was prepared with TRIzol™ (ThermoFisher Scientific) and RNA Clean and Concentrator™-5 kit (Zymo Research) following the product instructions. RNA integrity and quantity was assessed by NanoDrop Spectrophotometer (ThermoFisher Scientific). For analysis of mRNA expression, oligo-dT-primed cDNA was obtained using the High Capacity cDNA Reverse Transcription Kit (ThermoFisher Scientific), and used as template to quantify: human and murine IFNA1 (Hs03044218_g1, Mm03030145_gH), human and murine IFNB1 (Hs01077958_s1, Mm00439552_s1), human and murine CXCL9 (Hs00171065_ml, Mm00434946_ml), and human and murine GAPDH (Hs02786624_g1, Mm99999915_g1). Analysis was determined by RT-PCR using TaqMan®Fast Universal PCR Master Mix on a 7500 Fast Real-Time PCR System (ThermoFisher Scientific). Comparative RT-PCR was performed in triplicate. Relative expression was calculated using the comparative […] (Ct) method.
AMO1^WT and STING^KO cells were either untreated or treated with BTZ for 24 h. Supernatant was collected, and secretion of CXCL9 chemokines was analyzed by MIG (CXCL9) Human Instant ELISA™ Kit (#BMS285INST, ThermoFisher Scientific).
AMO1 WT and STING^KO were cultured for 16 h in the presence of absence of BTZ (5 nM). RNA was extracted as previously described and submitted to NovaSeq RNAseq analysis followed by VIPER NGS Analysis pipeline (Cornwell et al. (2018) BMC Bioinformatics; 19(1):135). Lists of DEGs were applied to the GSEA software. RNAseq data have been submitted to Gene Expression Omnibus (accession number: GSE171837).

[4] = system: AMO1, H929 and KMS11 MM cells; experiment: Phagocytosis assay of MM cells by monocyte-derived DCs; assay type: cell-based, human; settings: AMO1 GABARAP^KO after BTZ, rCALR 3 ug/10^6 cells
Procedure: Mo-DCs were generated from CD14+ peripheral blood monocytes were positively selected using magnetic beads (Miltenyi Biotec) and cultured for 6 days in mo-DC differentiation medium containing GM-CSF and IL-4 (130-094-812; Miltenyi Biotec) to generate Mo-DCs. AMO1, KMS11 and H929 cells lines, as well as patient MM cells, were stained with CellTrace™ Far Red (ThermoFisher Scientific), cultured with or without BTZ (for 16 h), and then incubated in 48-well plates for 4 h at 1:1 ratio with CellTrace™ CFSE stained Mo-DCs. Cells were then collected, and phagocytosis analysis was performed by flow cytometry and confocal microscopy. Analagous phagocytosis experiments was performed using 5TGM1 murine MM and immature murine DC line JAWSII.
Collected cells were analyzed using the BD LRSFortessa™ X-20 flow cytometer. Mo-DCs that engulfed MM cells were CFSE and FAR-RED double positive. Fold increase in percentage of double positive DCs after co-culture with BTZ treated vs untreated MM cells was compared.
Mo-DCs were generated from CD14+ peripheral blood monocytes from healthy donors, positively selected using magnetic beads (Miltenyi Biotec), cultured for 6 days in mo-DC differentiation medium containing GM-CSF and IL-4 (130-094-812; Miltenyi Biotec). AMO1 and NCI-H929 cells lines, as well as patient MM cells, were stained with CellTrace™ Far Red (ThermoFisher Scientific), cultured with or without BTZ for 16 h, and then incubated in 48-well plates for 4 h at 1:1 ratio with CellTrace™ CFSE stained Mo-DCs. Cells were then collected, and phagocytosis analysis was performed by flow cytometry and confocal microscopy. Analagous phagocytosis experiments were performed using 5TGM1 murine multiple myeloma and JAWSII cell line that was used as source of immature murine DCs.
Flow cytometry-based assay: Collected cells were analyzed using the BD LRSFortessa X-20 flow cytometer. Mo-DCs that engulfed MM cells were CFSE and FAR-RED double positive. Fold increase in percentage of double positive DCs after co-culture with BTZ treated vs untreated MM cells was compared.

For `CC(C)C[C@H](NC(=O)[C@H](CCc1ccccc1)NC(=O)CN1CCOCC1)C(=O)N[C@@H](Cc1ccccc1)C(=O)N[C@@H](CC(C)C)C(=O)[C@@]1(C)CO1` [carfilzomib], the CRT exposure (MM cell lines) is listed as “shown to expose CRT in different MM cell lines”.

For `Nc1cccc2c1CN(C1CCC(=O)NC1=O)C2=O` (centres unmarked) [lenalidomide], the “progression of HR-SMM” value (HR-SMM; lenalidomide alone) is given as “delay progressions of HR-SMM” and the “treatment discontinuation and secondary cancers” value (HR-SMM; lenalidomide cohort) is given as “high rate of treatment discontinuation and secondary cancers”.

With `Nc1ncnc2c1ncn2[C@@H]1O[C@@H]2COP(=O)([S-])O[C@@H]3[C@H](O)[C@@H](COP([O-])(=S)O[C@H]2[C@H]1O)O[C@H]3n1cnc2c(N)ncnc21.[Na+].[Na+]` (some centres unmarked) [ADU-S100] the anti-tumor activity (5TGM1 tumors [1]; 5TGM1 Sting^KO tumors in immunocompetent mice) was “still retained a partial anti-multiple myeloma activity”, the anti-tumor effects (5TGM1 tumors [1]; 5TGM1 WT in immunodeficient NOD/SCID mice, BTZ 0.375 mg/kg, ADU-S100 100 ug day 1 and 2) was “abrogated the anti-tumor effects” and the “CD3+ T cell infiltration within tumors (IHC)” value (5TGM1 tumors [2]) was “increased CD3+ T cell infiltration within tumors”. The “phosphorylated TBK1” value (cGAS/STING pathway) was “higher levels of phosphorylated TBK1 kinase”, the “direct killing of MM cells (live cells vs untreated)” value (5TGM1 MM cells) was “sensitive to a direct killing” and the “transcription of IFNA1 and IFNB1” value [3] was “increased transcription of IFNA1 and IFNB1”.

B1: rCRT: recombinant calreticulin purchased from Sigma (SRP8001) (protein)
chain: EPAVYFKEQFLDGDGWTSRWIESKHKSDFGKFVLSSGKFYGDEEKDKGLQTSQDARFYALSASFEPFSNKGQTLVVQFTVKHEQNIDCGGGYVKLFPNSLDQTDMHGDSEYNIMFGPDICGPGTKKVHVIFNYKGKNVLINKDIRCKDDEFTHLYTLIVRPDNTYEVKIDNSQVESGSLEDDWDFLPPKKIKDPDASKPEDWDERAKIDDPTDSKPEDWDKPEHIPDPDAKKPEDWDEEMDGEWEPPVIQNPEYKGEWKPRQIDNPDYKGTWIHPEIDNPEYSPDPSIYAYDNFGVLGLDLWQVKSGTIFDNFLITNDEAYAEEFGNETWGVTKAAEKQMKDKQDEEQRLKEEEEDKKRKEEEEAEDKEDDEDKDEDEEDEEDKEEDEEEDVPGQAKDEL
With B1 the “phagocytosis of MM cells by DCs with recombinant calreticulin add-back” value [4] was “confirmed the on-target effect GABARAP^KO; also recorded: restored phagocytosis of MM cells after BTZ” and the “phagocytosis of MM cells by DCs with recombinant calreticulin add-back” value ([4]; listed as recombinant CRT) was “increases the immune response against the cancer cells”.
